Results on 23 compounds are retold here after patent US9624214B2, “Amino-substituted imidazo[1,2-a]pyridinecarboxamides and their use” (BAYER PHARMA AKTIENGESELLSCHAFT, priority 2012, dated 2017).

Where a name gives a salt, the structure may show the parent alone.

The assay has as its target T1, recombinant guanylate cyclase reporter cell line (Rattus norvegicus, UniProt P19686+P20595).
T1 construct: expressed in transfected cells
T1 sequence (P20595 1-619): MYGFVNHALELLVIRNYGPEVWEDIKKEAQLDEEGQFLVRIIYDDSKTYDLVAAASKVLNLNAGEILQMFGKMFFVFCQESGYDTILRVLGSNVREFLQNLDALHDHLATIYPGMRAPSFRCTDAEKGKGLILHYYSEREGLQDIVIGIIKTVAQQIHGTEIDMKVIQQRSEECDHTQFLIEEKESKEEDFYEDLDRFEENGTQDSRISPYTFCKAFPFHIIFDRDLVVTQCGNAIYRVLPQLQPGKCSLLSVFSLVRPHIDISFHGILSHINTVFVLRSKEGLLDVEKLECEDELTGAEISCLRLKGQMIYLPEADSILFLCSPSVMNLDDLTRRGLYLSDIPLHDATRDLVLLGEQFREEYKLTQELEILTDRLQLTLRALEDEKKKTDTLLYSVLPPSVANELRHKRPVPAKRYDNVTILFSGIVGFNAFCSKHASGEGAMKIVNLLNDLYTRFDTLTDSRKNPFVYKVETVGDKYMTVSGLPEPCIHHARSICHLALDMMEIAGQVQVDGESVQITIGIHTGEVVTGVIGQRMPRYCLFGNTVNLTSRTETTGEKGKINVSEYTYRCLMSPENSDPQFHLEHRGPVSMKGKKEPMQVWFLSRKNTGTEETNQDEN
T1 sequence (P19686 1-690): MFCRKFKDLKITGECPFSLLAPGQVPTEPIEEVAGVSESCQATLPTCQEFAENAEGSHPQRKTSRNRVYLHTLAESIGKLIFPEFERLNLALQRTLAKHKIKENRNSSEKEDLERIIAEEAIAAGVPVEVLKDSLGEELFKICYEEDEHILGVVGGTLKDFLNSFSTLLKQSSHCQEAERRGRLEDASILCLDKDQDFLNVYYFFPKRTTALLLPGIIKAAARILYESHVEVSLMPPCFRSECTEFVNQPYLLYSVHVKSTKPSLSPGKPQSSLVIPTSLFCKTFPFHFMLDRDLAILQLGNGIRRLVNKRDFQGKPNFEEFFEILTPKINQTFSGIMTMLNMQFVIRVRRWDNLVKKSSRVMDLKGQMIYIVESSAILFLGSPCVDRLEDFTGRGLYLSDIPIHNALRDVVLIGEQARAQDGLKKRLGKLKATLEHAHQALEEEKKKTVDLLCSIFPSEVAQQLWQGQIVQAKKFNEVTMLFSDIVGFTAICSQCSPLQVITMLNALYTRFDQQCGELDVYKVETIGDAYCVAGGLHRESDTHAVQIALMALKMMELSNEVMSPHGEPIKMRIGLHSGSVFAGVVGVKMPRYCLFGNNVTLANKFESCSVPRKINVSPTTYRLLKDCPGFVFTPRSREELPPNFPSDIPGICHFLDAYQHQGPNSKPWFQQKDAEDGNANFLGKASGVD
The experiment in a line: B-2. Action on recombinant guanylate cyclase reporter cell line. The class given is cell-based. The settings on record: MEC = minimal effective concentration; in some cases mean values from individual determinations. Here is the method:
B-2. Action on Recombinant Guanylate Cyclase Reporter Cell Line
The cellular action of the compounds according to the invention is determined on a recombinant guanylate cyclase reporter cell line, as described in F. Wunder et al., Anal. Biochem. 339, 104-112 (2005).
Representative MEC values (MEC=minimal effective concentration) for the compounds according to the invention are shown in the following table (in some cases as mean values obtained from individual determinations): […]
In the case of `Cc1cc(OCc2c(F)cccc2F)c2nc(C)c(C(=O)N[C@@H]3CCCC[C@H]3N)n2c1` [Example 251, ent-N-[(1R,2R)-2-Aminocyclohexyl]-8-[(2,6-difluorobenzyl)oxy]-2,6-dimethylimidazo[1,2-a]-pyridine-3-carboxamide], the MEC worked out at 3.00 µM.

Turning to `Cc1nc2c(OCc3c(F)cccc3F)cccn2c1C(=O)N[C@H]1CCCNC1` [Example 60, 8-[(2,6-difluorobenzyl)oxy]-2-methyl-N-[(3S)-piperidin-3-yl]imidazo[1,2-a]pyridine-3-carboxamide dihydrochloride], the MEC turned out to be 0.30 µM.

For `Cc1cc(OCc2c(F)cccc2F)c2nc(C)c(C(=O)NCC(N)c3cnn(C)c3)n2c1` (racemic) [Example 370, rac-N-[2-amino-2-(1-methyl-1H-pyrazol-4-yl)ethyl]-8-[(2,6-difluorobenzyl)oxy]-2,6-dimethylimidazo[1,2-a]pyridine-3-carboxamide], the MEC is 3.00 µM.

For the compound `Cc1nc2c(OCc3c(F)cccc3F)cc(Cl)cn2c1C(=O)NCC1CCCCN1` (racemic) [Example 118, rac-6-chloro-8-[(2,6-difluorobenzyl)oxy]-2-methyl-N-(piperidin-2-ylmethyl)imidazo[1,2-a]-pyridine-3-carboxamide], the MEC stood at 1.00 µM.

For the compound `Cc1nc2c(OCc3c(F)cccc3F)cc(Cl)cn2c1C(=O)NCC(N)CC(F)(F)F` (racemic) [Example 147, rac-N-(2-amino-4,4,4-trifluorobutyl)-6-chloro-8-[(2,6-difluorobenzyl)oxy]-2-methylimidazo[1,2-a]pyridine-3-carboxamide], the MEC amounted to 0.30 µM.

Regarding `Cc1cc(OCc2c(F)cccc2F)c2nc(C)c(C(=O)NCC(C)(N)C(F)(F)F)n2c1` (racemic) [Example 239, rac-N-(2-Amino-3,3,3-trifluoro-2-methylpropyl)-8-[(2,6-difluorobenzyl)oxy]-2,6-dimethyl-imidazo[1,2-a]pyridine-3-carboxamide], the MEC was 0.30 µM.

Consider `Cc1cc(OCc2c(F)cccc2F)c2nc(C)c(C(=O)NCC(C)(N)Cc3ccccn3)n2c1` (racemic) [Example 297, rac-N-[2-amino-2-methyl-3-(pyridin-2-yl)propyl]-8-[(2,6-difluorobenzyl)oxy]-2,6-dimethylimidazo[1,2-a]pyridine-3-carboxamide], for which the MEC worked out at 0.10 µM.

For `Cc1nc2c(OCc3c(F)cccc3F)cccn2c1C(=O)NCC(C)(N)CCOCc1ccccc1` (single isomer, unassigned; enantiomer b) [Example 267, ent-N-[2-Amino-4-(benzyloxy)-2-methylbutyl]-8-[(2,6-difluorobenzyl)oxy]-2-methylimidazo[1,2-a]pyridine-3-carboxamide (Enantiomer B)], the MEC worked out at 0.10 µM.

On to `CCCC(C)(N)CNC(=O)c1c(C)nc2c(OCc3ccccc3Cl)cc(C)cn12` (racemic) [Example 343, rac-N-(2-amino-2-methylpentyl)-8-[(2-chlorobenzyl)oxy]-2,6-dimethylimidazo[1,2-a]pyridine-3-carboxamide], for which the MEC was determined as 1.00 µM.

Consider `CCC(C)(N)CNC(=O)c1c(C)nc2c(OCc3c(F)cccc3F)cc(Cl)cn12` (racemic) [Example 157, rac-N-(2-amino-2-methylbutyl)-6-chloro-8-[(2,6-difluorobenzyl)oxy]-2-methylimidazo[1,2-a]-pyridine-3-carboxamide], for which the MEC was 0.30 µM.

As to `CCC(C)(N)CNC(=O)c1c(C)nc2c(OCc3c(F)ccc(F)c3F)cc(C)cn12` (single isomer, unassigned; enantiomer a) [Example 274, ent-N-(2-Amino-2-methylbutyl)-2,6-dimethyl-8-[(2,3,6-trifluorobenzyl)oxy]imidazo[1,2-a]-pyridine-3-carboxamide (Enantiomer A)], the MEC was 0.10 µM.

Regarding `Cc1nc2c(OCc3c(F)cccc3F)cccn2c1C(=O)NC(CN)CCCC(F)(F)F` (single isomer, unassigned; enantiomer b) [Example 6, ent-N-(1-Amino-6,6,6-trifluorohexan-2-yl)-8-[(2,6-difluorobenzyl)oxy]-2-methylimidazo[1,2-a]-pyridine-3-carboxamide (Enantiomer B)], the MEC was found to be 0.23 µM.

For the compound `Cc1cc(OCc2c(F)cccc2F)c2nc(C)c(C(=O)NCCN3CCN(C(C)C)CC3)n2c1` [Example 139, 8-[(2,6-difIuorobenzyl)oxy]-N-[2-(4-isopropylpiperazin-1-yl)ethyl]-2,6-dimethylimidazo[1,2-a]pyridine-3-carboxamide], the MEC was determined as 1.00 µM.

Take `Cc1cc(OCc2c(F)cccc2F)c2nc(C)c(C(=O)NCC3CS(=O)(=O)CCN3)n2c1` (racemic) [Example 414, rac-8-[(2,6-difluorobenzyl)oxy]-N-[(1,1-dioxidothiomorpholin-3-yl)methyl]-2,6-dimethylimidazo[1,2-a]pyridine-3-carboxamide]: the MEC turned out to be 0.30 µM.

For `Cc1nc2c(OCc3c(F)cccc3F)cc(Cl)cn2c1C(=O)NCC1(N)CCCC1` [Example 42, N-[(1-aminocyclopentyl)methyl]-6-chloro-8-[(2,6-difluorobenzyl)oxy]-2-methylimidazo[1,2-a]pyridine-3-carboxamide], the MEC came to 1.00 µM.

As to `Cc1nc2c(OCc3c(F)cccc3F)cc(Cl)cn2c1C(=O)NCC(C)(C)N1CCCC1` [Example 148, 6-chloro-8-[(2,6-difluorobenzyl)oxy]-2-methyl-N-[2-methyl-2-(pyrrolidin-1-yl)-propyl]imidazo[1,2-a)pyridine-3-carboxamide], the MEC stood at 1.00 µM.

Turning to `COc1cccc(C(CN)NC(=O)c2c(C)nc3c(OCc4c(F)cccc4F)cc(C)cn23)c1` (racemic) [Example 382, rac-N-[2-amino-1-(3-methoxyphenyl)ethyl]-8-[(2,6-difluorobenzyl)oxy]-2,6-dimethylimidazo[1,2-a]pyridine-3-carboxamide], the MEC came to 0.30 µM.

`COc1ccc(F)c(COc2cc(C)cn3c(C(=O)NCC(C)(N)CF)c(C)nc23)c1F` (stereo not drawn) [Example 361, ent-N-(2-amino-3-fluoro-2-methylpropyl)-8-[(2,6-difluoro-3-methoxybenzyl)oxy]-2,6-dimethylimidazo[1,2-a]pyridine-3-carboxamide]: the MEC stood at 1.00 µM.

As to `CCCC[C@H](CN(C)C)NC(=O)c1c(C)nc2c(OCc3c(F)cccc3F)cccn12` [Example 68, ent-8-[(2,6-difluorobenzyl)oxy]-N-[(2R)-1-(dimethylamino)hexan-2-yl]-2-methylimidazo[1,2-a]pyridine-3-carboxamide], the MEC is 0.30 µM.

In the case of `COC(=O)[C@@H](N)CNC(=O)c1c(C)nc2c(OCc3c(F)cccc3F)cc(C)cn12` [Example 319, Methyl 3-[({8-[(2,6-difluorobenzyl)oxy]-2,6-dimethylimidazo[1,2-a]pyridin-3-yl}carbonyl)amino]-L-alaninate], the MEC was 0.30 µM.

Turning to `Cc1nc2c(OCc3c(F)cccc3F)cccn2c1C(=O)NCCNc1ccc(F)cc1` [Example 79, 8-[(2,6-difluorobenzyl)oxy]-N-{2-[(4-fluoro-phenyl)amino]ethyl}-2-methylimidazo[1,2-a]-pyridine-3-carboxamide], the MEC is 1.00 µM.

On to `Cc1cc(OCc2c(F)cccc2F)c2nc(C)c(C(=O)NCC(N)c3ccc4ncccc4c3)n2c1` (racemic) [Example 372, rac-N-[2-amino-2-(quinolin-6-yl)ethyl]-8-[(2,6-difluorobenzyl)oxy]-2,6-dimethylimidazo[1,2-a]pyridine-3-carboxamide], for which the MEC was 3.00 µM.

`Cc1cc(OCc2c(F)cccc2F)c2nc(C)c(C(=O)NCC(C)(C)NCC(F)(F)F)n2c1` [Example 94, 8-[(2,6-Difluorobenzyl)oxy]-2,6-dimethyl-N-{2-methyl-2-[(2,2,2-trifluoroethyl)amino]propyl}-imidazo[1,2-a]pyridine-3-carboxamide]: the MEC is 0.30 µM.
